Data as given in patent publication US10385024B2, “Compounds and methods for inhibiting NHE-mediated antiport in the treatment of disorders associated with fluid retention or salt overload and gastrointestinal tract disorders” (Ardelyx, Inc., priority 2012, dated 2019).

Legend:
[1] = molecular target: T1, Rat NHE-3 (Rattus norvegicus, UniProt P26433); experiment: Cell-based assay of NHE-3 activity (persistent inhibition, after washout); conditions: OK cells with rat NHE-3 gene, 60 min incubation, recovery initiated 40 min after compound washout; for IC50: read-out: Rat NHE3 pIC50 (persistent) (converted)
T1 construct: expressed in transfected cells; host or cells: Opossum kidney (OK) cells (ATCC), transfected by electroporation
How it was run: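 OK cells transiently expressing rat NHE-3 were exposed to 0-30 μM compound in NaCl-HEPES pH 7.4 for 60 min, then washed free of drug before NH4Cl/BCECF-AM loading and acid-loading in Na+-free choline buffer. Na+-dependent pH recovery rates (mean of ≥2 replicates) gave pIC50.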

[2] = Fecal recovery; type: in vivo, Sprague Dawley rats; conditions: rat, 1 mg/kg oral gavage; for dose excreted: male, Sprague-Dawley, faeces
Method: Three male Sprague Dawley rats were administered 1 mg/kg test compound by oral gavage. Feces were collected from study animals from 0-48 or 0-72 hours after dosing, dried by lyophilization, and homogenized. Replicate aliquots of 40-60 mg each were subjected to extraction/protein precipitation with 7:1 acetonitrile:water and centrifuged. Supernatants were diluted 1:10 in 50:50 acetonitrile:water prior to analysis by LC-MS/MS. Compound concentrations, determined by interpolation from a standard calibration curve prepared in blank feces matrix, were converted to the percentage of dosed material recovered by taking into account the total collected fecal matter. The percent recovery for each rat was reported as the mean of the calculations from replicate samples. The overall percent recovery (Fecal Recovery [%]) was reported as the mean percent recovery from three rats. Accurate quality control sample recoveries were confirmed in each run, and extraction efficiency was periodically verified.

[3] = Pharmacokinetic evaluation in bile; type: in vivo, Sprague-Dawley rats; conditions: bile duct cannulated rats, oral gavage, nominal dose 30 mg/kg, bile collected over 24 h, mean of n=3
Method: Bile duct cannulated (BDC) Sprague-Dawley rats were dosed with test compounds by oral gavage and a single aliquot of bile was collected via cannula over the 24 h following dosing. Bile samples were treated with acetonitrile and precipitated proteins were removed by centrifugation. Some compounds required liquid-liquid extraction using MTBE. After centrifugation, samples were diluted as appropriate in mobile phase and analyzed by LC-MS/MS. The concentrations of compounds in bile were determined by interpolation from a standard calibration curve prepared in rat bile from untreated BDC rats. Accurate recovery of quality control samples was confirmed to accept each analytical run. Concentration in bile is reported in nM and represents the mean result from n=3 rats.

[4] = Plasma PK; type: in vivo, Sprague-Dawley rats; conditions: Sprague-Dawley; rat plasma, oral gavage, nominal dose 30 mg/kg, mean of n=3, sampling 0.5-4 h
Method: Sprague-Dawley rats (n=3) were dosed with test compounds by oral gavage. Blood was collected at 0.5, 1, 2 and 4 h via retro-orbital bleeds and processed to plasma using K2EDTA as an anticoagulant. Plasma samples were treated with acetonitrile containing an internal standard and precipitated proteins were removed by centrifugation. Supernatants were analyzed by LC-MS/MS and compound concentrations were determined by interpolation from a calibration curve prepared in plasma. Accurate recovery of quality control samples were confirmed to accept each analytical run.

T1 sequence (P26433 29-831): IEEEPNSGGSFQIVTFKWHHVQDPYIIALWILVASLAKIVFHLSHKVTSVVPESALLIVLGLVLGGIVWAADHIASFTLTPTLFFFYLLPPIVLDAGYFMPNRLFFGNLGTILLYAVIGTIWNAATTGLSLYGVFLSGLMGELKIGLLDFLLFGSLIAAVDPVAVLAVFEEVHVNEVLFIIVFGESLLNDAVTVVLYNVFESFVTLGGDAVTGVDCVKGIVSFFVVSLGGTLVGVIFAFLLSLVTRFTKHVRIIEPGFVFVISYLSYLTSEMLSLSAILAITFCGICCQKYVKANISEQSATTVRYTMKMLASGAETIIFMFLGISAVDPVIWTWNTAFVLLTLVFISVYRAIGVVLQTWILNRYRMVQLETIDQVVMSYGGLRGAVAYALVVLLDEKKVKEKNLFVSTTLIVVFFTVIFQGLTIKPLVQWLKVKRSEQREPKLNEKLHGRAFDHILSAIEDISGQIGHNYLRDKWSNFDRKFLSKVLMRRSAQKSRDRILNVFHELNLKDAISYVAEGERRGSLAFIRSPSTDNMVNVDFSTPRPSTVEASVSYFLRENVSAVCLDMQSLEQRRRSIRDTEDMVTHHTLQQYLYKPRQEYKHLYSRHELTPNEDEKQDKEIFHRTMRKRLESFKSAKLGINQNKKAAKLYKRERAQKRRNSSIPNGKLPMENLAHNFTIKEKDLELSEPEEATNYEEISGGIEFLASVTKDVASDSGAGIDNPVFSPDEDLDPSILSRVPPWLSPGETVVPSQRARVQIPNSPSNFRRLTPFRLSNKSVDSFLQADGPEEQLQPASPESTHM

SMILES | Rat NHE3 pIC50 (persistent) [1] | Concentration in Bile [3] [nM] | dose excreted ([2]; collection time 48 h) [%] | IC50 [1] [nM] | further results
CN1Cc2c(Cl)cc(Cl)cc2[C@H](c2cccc(S(=O)(=O)NCCOCCOCCNC(=O)CCC(CCC(=O)NCCOCCOCCNS(=O)(=O)c3cccc([C@@H]4CN(C)Cc5c(Cl)cc(Cl)cc54)c3)(CCC(=O)NCCOCCOCCNS(=O)(=O)c3cccc([C@@H]4CN(C)Cc5c(Cl)cc(Cl)cc54)c3)NC(=O)CCC(=O)O)c2)C1 [Example 40] | C (C NHE3 pIC50 > 7) | 23 | – | – | Fecal Recovery ([2]; collection time 48 h): 99.1%
CN1Cc2c(Cl)cc(Cl)cc2[C@H](c2cccc(S(=O)(=O)NCCOCCOCCN(C)C(=O)NCCCN(CCCNC(=O)N(C)CCOCCOCCNS(=O)(=O)c3cccc([C@@H]4CN(C)Cc5c(Cl)cc(Cl)cc54)c3)CCCNC(=O)N(C)CCOCCOCCNS(=O)(=O)c3cccc([C@@H]4CN(C)Cc5c(Cl)cc(Cl)cc54)c3)c2)C1 [Example 55] | C (C NHE3 pIC50 > 7) | – | 64.6 | – | –
CN1Cc2c(Cl)cc(Cl)cc2[C@H](c2cccc(S(=O)(=O)NCCOCCOCCNC(=O)CCC(CCC(=O)NCCOCCOCCNS(=O)(=O)c3cccc([C@@H]4CN(C)Cc5c(Cl)cc(Cl)cc54)c3)(CCC(=O)NCCOCCOCCNS(=O)(=O)c3cccc([C@@H]4CN(C)Cc5c(Cl)cc(Cl)cc54)c3)N(C)C)c2)C1 [Example 4, N^1,N^7-bis(2-(2-(2-(3-((S)-6,8-dichloro-2-methyl-1,2,3,4-tetrahydroisoquinolin-4-yl)phenylsulfonamido)ethoxy)ethoxy)ethyl)-4-(3-(2-(2-(2-(3-((S)-6,8-dichloro-2-methyl-1,2,3,4-tetrahydroisoquinolin-4-yl)phenylsulfonamido)ethoxy)ethoxy)ethylamino)-3-oxopropyl)-4-(dimethylamino)heptanediamide] | – | 45 | – | < 100 | AUC [4]: < 13 ng·h/mL; Cmax [4]: < 5 ng/mL
CN1Cc2c(Cl)cc(Cl)cc2[C@H](c2cccc(S(=O)(=O)NCCOCCOCCNC(=O)CCC(CCC(=O)NCCOCCOCCNS(=O)(=O)c3cccc([C@@H]4CN(C)Cc5c(Cl)cc(Cl)cc54)c3)(CCC(=O)NCCOCCOCCNS(=O)(=O)c3cccc([C@@H]4CN(C)Cc5c(Cl)cc(Cl)cc54)c3)NC(=O)NC(CO)(CO)CO)c2)C1 [Example 11, N^1,N^7-bis(2-(2-(2-(3-((S)-6,8-dichloro-2-methyl-1,2,3,4-tetrahydroisoquinolin-4-yl)phenylsulfonamido)ethoxy)ethoxy)ethyl)-4-(3-(2-(2-(2-(3-((S)-6,8-dichloro-2-methyl-1,2,3,4-tetrahydroisoquinolin-4-yl)phenylsulfonamido)ethoxy)ethoxy)ethylamino)-3-oxopropyl)-4-(3-(1,3-dihydroxy-2-(hydroxymethyl)propan-2-yl)ureido)heptanediamide] | – | – | 64.1 | < 100 | –
CN1Cc2c(Cl)cc(Cl)cc2[C@H](c2cccc(S(=O)(=O)NCCOCCOCCNC(=O)CCC(CCC(=O)NCCOCCOCCNS(=O)(=O)c3cccc([C@@H]4CN(C)Cc5c(Cl)cc(Cl)cc54)c3)(CCC(=O)NCCOCCOCCNS(=O)(=O)c3cccc([C@@H]4CN(C)Cc5c(Cl)cc(Cl)cc54)c3)NC(=O)NCCS(=O)(=O)O)c2)C1 [Example 3] | – | 10 | – | < 100 | dose excreted ([2]; collection time 72 h): 110%
CN(C)CC(=O)NC(CCC(=O)NCCOCCOCCNS(=O)(=O)c1cccc([C@@H]2CN(C)Cc3c(Cl)cc(Cl)cc32)c1)(CCC(=O)NCCOCCOCCNS(=O)(=O)c1cccc([C@@H]2CN(C)Cc3c(Cl)cc(Cl)cc32)c1)CCC(=O)NCCOCCOCCNS(=O)(=O)c1cccc([C@@H]2CN(C)Cc3c(Cl)cc(Cl)cc32)c1 [Example 14, N1,N7-bis(2-(2-(2-(3-((S)-6,8-dichloro-2-methyl-1,2,3,4-tetrahydroisoquinolin-4-yl)phenylsulfonamido)ethoxy)ethoxy)ethyl)-4-(3-(2-(2-(2-(3-((S)-6,8-dichloro-2-methyl-1,2,3,4-tetrahydroisoquinolin-4-yl)phenylsulfonamido)ethoxy)ethoxy)ethylamino)-3-oxopropyl)-4-(2-(dimethylamino)acetamido)heptanediamide] | – | 28 | – | < 100 | dose excreted ([2]; collection time 72 h): 75.3%
CN1Cc2c(Cl)cc(Cl)cc2[C@H](c2cccc(S(=O)(=O)NCCOCCOCCNC(=O)CCC(CCC(=O)NCCOCCOCCNS(=O)(=O)c3cccc([C@@H]4CN(C)Cc5c(Cl)cc(Cl)cc54)c3)(CCC(=O)NCCOCCOCCNS(=O)(=O)c3cccc([C@@H]4CN(C)Cc5c(Cl)cc(Cl)cc54)c3)NC(=O)CCCC(=O)O)c2)C1 [Example 36] | C (C NHE3 pIC50 > 7) | 17 | – | – | Fecal Recovery ([2]; collection time 48 h): 68%
CN1Cc2c(Cl)cc(Cl)cc2[C@H](c2cccc(S(=O)(=O)NCCOCCOCCNC(=O)NCCCC(N)(CCCNC(=O)NCCOCCOCCNS(=O)(=O)c3cccc([C@@H]4CN(C)Cc5c(Cl)cc(Cl)cc54)c3)CCCNC(=O)NCCOCCOCCNS(=O)(=O)c3cccc([C@@H]4CN(C)Cc5c(Cl)cc(Cl)cc54)c3)c2)C1 [Example 62] | C (C NHE3 pIC50 > 7) | 7 | 81.5 | – | –
CN1Cc2c(Cl)cc(Cl)cc2[C@H](c2cccc(S(=O)(=O)NCCOCCOCCNC(=O)NCCCN(CCCNC(=O)NCCOCCOCCNS(=O)(=O)c3cccc([C@@H]4CN(C)Cc5c(Cl)cc(Cl)cc54)c3)CCCNC(=O)NCCOCCOCCNS(=O)(=O)c3cccc([C@@H]4CN(C)Cc5c(Cl)cc(Cl)cc54)c3)c2)C1 [Example 43, (S)—N,N′-(15-(1-(3-((S)-6,8-dichloro-2-methyl-1,2,3,4-tetrahydroisoquinolin-4-yl)phenylsulfonamido)-10-oxo-3,6-dioxa-9,11-diazatetradecan-14-yl)-10,20-dioxo-3,6,24,27-tetraoxa-9,11,15,19,21-pentaazanonacosane-1,29-diyl)bis(3-((S)-6,8-dichloro-2-methyl-1,2,3,4-tetrahydroisoquinolin-4-yl)benzenesulfonamide)] | – | 6 | 53.8 | < 100 | –
CN1Cc2c(Cl)cc(Cl)cc2[C@H](c2cccc(S(=O)(=O)NCCOCCOCCNC(=O)NCCCC(CCCNC(=O)NCCOCCOCCNS(=O)(=O)c3cccc([C@@H]4CN(C)Cc5c(Cl)cc(Cl)cc54)c3)(CCCNC(=O)NCCOCCOCCNS(=O)(=O)c3cccc([C@@H]4CN(C)Cc5c(Cl)cc(Cl)cc54)c3)NC(=O)NC[C@H](O)[C@@H](O)[C@H](O)[C@H](O)CO)c2)C1 [Example 65] | C (C NHE3 pIC50 > 7) | – | 112 | – | –
CN1Cc2c(Cl)cc(Cl)cc2[C@H](c2cccc(S(=O)(=O)NCCOCCOCCNC(=O)CCC(CCC(=O)NCCOCCOCCNS(=O)(=O)c3cccc([C@@H]4CN(C)Cc5c(Cl)cc(Cl)cc54)c3)(CCC(=O)NCCOCCOCCNS(=O)(=O)c3cccc([C@@H]4CN(C)Cc5c(Cl)cc(Cl)cc54)c3)NC(=O)NCCN3CCOCC3)c2)C1 [Example 17, N^1,N^7-bis(2-(2-(2-(3-((S)-6,8-dichloro-2-methyl-1,2,3,4-tetrahydroisoquinolin-4-yl)phenylsulfonamido)ethoxy)ethoxy)ethyl)-4-(3-(2-(2-(2-(3-((S)-6,8-dichloro-2-methyl-1,2,3,4-tetrahydroisoquinolin-4-yl)phenylsulfonamido)ethoxy)ethoxy)ethylamino)-3-oxopropyl)-4-(3-(2-morpholinoethyl)ureido)heptanediamide] | – | – | – | < 100 | dose excreted ([2]; collection time 72 h): 96.9%
CN1Cc2c(Cl)cc(Cl)cc2[C@H](c2cccc(S(=O)(=O)NCCOCCOCCNC(=O)CCC(CCC(=O)NCCOCCOCCNS(=O)(=O)c3cccc([C@@H]4CN(C)Cc5c(Cl)cc(Cl)cc54)c3)(CCC(=O)NCCOCCOCCNS(=O)(=O)c3cccc([C@@H]4CN(C)Cc5c(Cl)cc(Cl)cc54)c3)NC(=O)COCC(=O)O)c2)C1 [Example 6, 1-(3-((S)-6,8-dichloro-2-methyl-1,2,3,4-tetrahydroisoquinolin-4-yl)phenylsulfonamido)-13,13-bis(3-(2-(2-(2-(3-((S)-6,8-dichloro-2-methyl-1,2,3,4-tetrahydroisoquinolin-4-yl)phenylsulfonamido)ethoxy)ethoxy)ethylamino)-3-oxopropyl)-10,15-dioxo-3,6,17-trioxa-9,14-diazanonadecan-19-oic Acid] | – | 21 | 51.5 | < 100 | –
